In patent US4288590A, “7 -[Dα-(4-Hydroxy-1,5-naphthyridine-3-carboxamido)-α-arylacetam ido]-3-(N,N-dimethyl-aminomethylpyridinium) methyl-3-cephem-4-carboxylates” (Bristol-Myers Company, priority 1980, dated 1981):
Values after ≈ are worked out from the molar mass of the structure shown. Structures can show the parent of a compound that is named as a salt. Where two headings read alike, the source gives them in different places.

Key:
Assay in all cases: MIC, serial two-fold agar dilution (Table 1)
Type in all cases: cell-based
Ps. aeruginosa A20229 = details: Pseudomonas aeruginosa, Mueller-Hinton agar
Experimental: (§1) Minimum inhibitory concentrations (MIC) of BB-S 651, BB-S 669 and BB-S 676 were determined by serial two-fold agar dilution method using Steers' apparatus on Mueller-Hinton agar plate against 15 test organisms for primary screening as shown in Table 1.

E. coli A15148 = details: Escherichia coli; E. coli A15148, cephalothin-resistant; Mueller-Hinton agar
Experimental: as §1

E. coli A15164 = details: Escherichia coli; E. coli A15164, cephalothin-resistant; Mueller-Hinton agar
Experimental: as §1

Ps. aeruginosa A9843 = details: Pseudomonas aeruginosa, Mueller-Hinton agar
Experimental: as §1

S. aureus Smith A9537 = details: Staphylococcus aureus, SMITHA9537, Mueller-Hinton agar
Experimental: as §1

Ps. aeruginosa A20718 = details: Pseudomonas aeruginosa, Mueller-Hinton agar
Experimental: as §1

[1] = tested on: S. aureus BX-1633-2 A9606; details: Staphylococcus aureus, BX16332A9606
Experimental: as §1

E. coli Juhl A15119 = details: Escherichia coli, JUHLA15119; E. coli Juhl A15119, cephalothin-sensitive; Mueller-Hinton agar
Experimental: as §1

S. aureus 209P A9497 = details: Staphylococcus aureus
Experimental: as §1

E. cloacae A9656 = details: Enterobacter cloacae, Mueller-Hinton agar
Experimental: as §1

Ps. aeruginosa A20717 = details: Pseudomonas aeruginosa, Mueller-Hinton agar
Experimental: as §1

S. marcescens A20019 = details: Serratia marcescens, Mueller-Hinton agar
Experimental: as §1

E. coli A9660 = details: Escherichia coli; E. coli A9660, cephalothin-sensitive; Mueller-Hinton agar
Experimental: as §1

Ps. aeruginosa A15150 = details: Pseudomonas aeruginosa, Mueller-Hinton agar
Experimental: as §1

S. aureus #193 = details: Staphylococcus aureus
Experimental: as §1

[2] = S. aureus BX-1633-2 A9606, penicillinase-producing, Mueller-Hinton agar, read-out: MIC
[3] = S. aureus #193, penicillinase-producing, Mueller-Hinton agar, read-out: MIC
[4] = S. aureus 209P A9497, Mueller-Hinton agar, read-out: MIC

| SMILES | MIC (Ps. aeruginosa A20229) [µg/mL] | MIC (E. coli A15148) [µg/mL] | MIC (E. coli A15164) [µg/mL] | MIC (Ps. aeruginosa A9843) [µg/mL] | MIC (S. aureus Smith A9537) [µg/mL] | MIC (Ps. aeruginosa A20718) [µg/mL] | MIC [1, 2] [µg/mL] | MIC (E. coli Juhl A15119) [µg/mL] | MIC (S. aureus 209P A9497; 209P) [µg/mL] | MIC (E. cloacae A9656) [µg/mL] | MIC (Ps. aeruginosa A20717) [µg/mL] | MIC (S. marcescens A20019) [µg/mL] | MIC (E. coli A9660) [µg/mL] | MIC (Ps. aeruginosa A15150) [µg/mL] | MIC (S. aureus #193; [3]) [µg/mL] | MIC (S. aureus 209P A9497; [4]) [µg/mL] | MIC [1] [µg/mL] | MIC (S. aureus #193) [µg/mL] |
| --- | --- | --- | --- | --- | --- | --- | --- | --- | --- | --- | --- | --- | --- | --- | --- | --- | --- | --- |
| CN(C)Cc1cc[n+](CC2=C(C(=O)[O-])N3C(=O)C(NC(=O)[C@H](NC(=O)c4cnc5cccnc5c4O)c4ccc(O)cc4)C3SC2)cc1 (stereo partly drawn) [BB-S 669, 7-[D-α-(4-Hydroxy-1,5-naphthyridine-3-carboxamido)-α-(4-hydroxyphenyl)acetamido]-3-(4-N,N-dimethylaminomethylpyridinium)methyl-3-cephem-4-carboxylate Hydrochloride] | 1.6 | 0.8 | 6.3 | 1.6 | 6.3 | 0.8 | 25 | 1.6 | 3.1 | 3.1 | 3.1 | 12.5 | 0.8 | 0.8 | 25 |  |  |  |
| CN(C)Cc1ccc[n+](CC2=C(C(=O)[O-])N3C(=O)C(NC(=O)[C@H](NC(=O)c4cnc5cccnc5c4O)c4ccccc4)C3SC2)c1 (stereo partly drawn) [BB-S 676, 7-[D-α-(4-Hydroxy-1,5-naphthyridine-3-carboxamido)α-phenylacetamido]-3-(3-N,N-dimethylaminomethylpyridinium)methyl-3-cephem-4-carboxylateHydrochloride] | 3.1 | 6.3 | 50 | 3.1 | 3.1 | 1.6 | 6.3 | 12.5 |  | 50 | 6.3 | 50 | 3.1 | 1.6 | 6.3 | 1.6 |  |  |
| CC1(C)S[C@@H]2[C@H](NC(=O)C(C(=O)O)c3ccccc3)C(=O)N2[C@H]1C(=O)O (stereo partly drawn) [Carbenicillin, reference compound] | 50 (≈ 132 µM) | 3.1 (≈ 8.19 µM) | 6.3 (≈ 16.6 µM) | 50 (≈ 132 µM) | 0.2 (≈ 0.529 µM) | 25 (≈ 66.1 µM) |  | 3.1 (≈ 8.19 µM) |  | 3.1 (≈ 8.19 µM) | > 100 | 3.1 (≈ 8.19 µM) | 0.8 (≈ 2.11 µM) | 25 (≈ 66.1 µM) |  | 0.2 (≈ 0.529 µM) | 12.5 (≈ 33 µM) | 12.5 (≈ 33 µM) |
